The results in this text go back to US9084424B2, “N-benzyl heterocyclic carboxamides” (BAYER INTELLECTUAL PROPERTY GMBH, priority 2010, dated 2015).

Molecules are shown by their SMILES.

A short description of the first series: log P by HPLC on reversed-phase column (EEC Directive 79/831 Annex V.A8). Type of series: physicochemical. As to conditions: HPLC on reversed-phase column (C 18), 40° C., 0.1% aqueous formic acid and acetonitrile, linear gradient 10% to 90% acetonitrile. The procedure:
In table 1, the log P values were determined in accordance with EEC Directive 79/831 Annex V.A8 by HPLC (High Performance Liquid Chromatography) on a reversed-phase column (C 18), using the method described below: Temperature: 40° C.; Mobile phases: 0.1% aqueous formic acid and acetonitrile; linear gradient from 10% acetonitrile to 90% acetonitrile. Calibration was carried out using unbranched alkan-2-ones (comprising 3 to 16 carbon atoms) with known log P values (determination of the log P values by the retention times using linear interpolation between two successive alkanones). lambda-max-values were determined using UV-spectra from 200 nm to 400 nm and the peak values of the chromatographic signals.
A word on the logP: it is a log measure of how a compound divides between an organic and an aqueous phase. High values mean a more lipophilic compound, low ones a more hydrophilic compound. In turn, `Cn1nc(C(F)F)c(C(=O)NC2(c3cccc(C(F)(F)F)c3)CCCC2)c1Cl` [Example 109] came in with a logP of 3.80.

Take `Cn1nc(C(F)F)c(C(=O)NCc2ccc3c(c2)CCCC3)c1Cl` [Example 111]: the logP amounted to 3.44.

Consider `Cn1nc(C(F)F)c(C(=O)NC(C)(C)c2cc(Cl)cc(Cl)c2)c1F` [Example 114], for which the logP is reported as 3.59.

`COc1ccc(CNC(=O)c2c(C(F)F)nn(C)c2F)cc1OC` [Example 119] showed a logP of 1.79.

On to `COc1ccc(CNC(=O)c2c(C(F)F)nn(C)c2Cl)cc1OC` [Example 120], for which the logP came to 1.36.

Take `Cn1nc(C(F)F)c(C(=O)NC2(c3ccc(C(F)(F)F)cc3)CCCC2)c1Cl` [Example 122]: the logP is on record as 3.87.

`Cn1nc(C(F)F)c(C(=O)NCc2ccc(C(F)(F)F)cc2)c1F` [Example 123]: the logP was determined as 2.75.

In turn, `Cn1nc(C(F)F)c(C(=O)NCc2ccc(C(F)(F)F)cc2)c1Cl` [Example 124] had a logP of 2.90.

`Cn1nc(C(F)F)c(C(=O)NCc2ccc(Cl)cc2)c1Cl` [Example 128] yielded a logP of 2.70.

As for `CCOc1ccc(C2(NC(=O)c3c(C(F)F)nn(C)c3Cl)CCCC2)cc1` [Example 130], the log partition coefficient (logP) is reported as 3.59.

`COc1ccc(C2(NC(=O)c3c(C(F)F)nn(C)c3Cl)CCCC2)cc1` [Example 132] gave a logP of 3.19.

`COc1ccc(CNC(=O)c2c(C(F)F)nn(C)c2F)cc1` [Example 134]: the logP is listed as 2.08.

For `Cn1nc(C(F)F)c(C(=O)NCc2ccccc2Oc2ccccc2)c1Cl` [Example 143], the log partition coefficient (logP) is 3.46.

As for `Cn1nc(C(F)F)c(C(=O)NCc2cccc(Oc3ccccc3)c2)c1Cl` [Example 146], the lipophilicity (logP) was 3.46.

Molecule `Cn1nc(C(F)F)c(C(=O)NCc2ccc(Oc3ccccc3)cc2)c1Cl` [Example 151] had a logP of 3.37.

In the case of `CN(Cc1ccc(Oc2ccccc2)cc1)C(=O)c1c(C(F)F)nn(C)c1Cl` [Example 155], the logP is recorded as 3.48.

Take `Cn1nc(C(F)F)c(C(=O)NCc2ccc(OCc3ccccc3)cc2)c1Cl` [Example 160]: the logP is 3.37.

Regarding `Cn1nc(C(F)F)c(C(=O)NCc2ccccc2-c2ccccc2)c1F` [Example 163], the logP is 3.21.

For the molecule `Cn1nc(C(F)F)c(C(=O)NCc2ccccc2-c2ccccc2)c1Cl` [Example 164], the logP was found to be 3.39.

For `Cn1nc(C(F)F)c(C(=O)NCc2cccc(-c3ccccc3)c2)c1Cl` [Example 165], the logP amounted to 3.33.

`Cn1nc(C(F)F)c(C(=O)NCc2ccc(-c3ccccc3)cc2)c1Cl` [Example 168] returned a lipophilicity (logP) of 3.35.

In turn, `Cn1nc(C(F)F)c(C(=O)NC2(c3ccccn3)CCCC2)c1Cl` [Example 171] had a logP of 1.30.

On to `Cn1nc(C(F)F)c(C(=O)NC2(c3ccccn3)CCCC2)c1F` [Example 172], for which the logP is recorded as 1.13.

Consider `CN(Cc1cc(Cl)ccn1)C(=O)c1c(C(F)F)nn(C)c1Cl` [Example 173], for which the logP is given as 2.01.

`Cn1nc(C(F)F)c(C(=O)NCc2ncc(C(F)(F)F)cc2Cl)c1Cl` [Example 178]: the logP is recorded as 3.08.

`Cn1nc(C(F)F)c(C(=O)N(Cc2ncc(Cl)cc2Cl)C2CCCC2)c1F` [Example 183] registered a logP of 3.85.

As to `CC(c1ncc(Cl)cc1Cl)N(C)C(=O)c1c(C(F)F)nn(C)c1Cl` (centres unmarked) [Example 186], the logP is recorded as 3.11.

`Cn1nc(C(F)F)c(C(=O)N(Cc2ncc(C(F)(F)F)cc2Cl)C2CCCC2)c1Cl` [Example 189] had a logP of 4.21.

As to `Cn1nc(C(F)F)c(C(=O)N(Cc2ncc(C(F)(F)F)cc2Cl)C2CCCC2)c1F` [Example 190], the logP was determined as 3.96.

The same series, now with this note: HPLC, reversed-phase C 18, 40° C., 0.1% aqueous formic acid and acetonitrile, linear gradient 10% to 90% acetonitrile.
On to `Cn1nc(C(F)F)c(C(=O)NC(C#N)c2ccccc2)c1F` (racemic) [Example 3], for which the logP is on record as 2.07.

Turning to `Cn1nc(C(F)F)c(C(=O)NC(C#N)c2ccccc2)c1Cl` (racemic) [Example 4], the logP is given as 2.20.

`Cn1nc(C(F)F)c(C(=O)NC(C#N)c2cc(F)ccc2F)c1Cl` (racemic) [Example 7] returned a logP of 2.31.

On to `Cn1nc(C(F)F)c(C(=O)NC(C#N)c2cc(F)ccc2F)c1F` (racemic) [Example 8], for which the logP worked out at 2.01.

With `Cn1nc(C(F)F)c(C(=O)NC(C)(C)c2c(F)cccc2F)c1F` [Example 9], the logP is on record as 4.19.

In turn, `Cn1nc(C(F)F)c(C(=O)NC(C)(C)c2c(F)cccc2F)c1Cl` [Example 10] gave a logP of 3.89.

With `CCc1ccccc1CN(CC#N)C(=O)c1c(C(F)F)nn(C)c1F` [Example 11], the logP is reported as 2.68.

`CCc1ccccc1CN(C(=O)c1c(C(F)F)nn(C)c1F)C(C)C` [Example 14]: the logP is reported as 3.39.

Regarding `Cn1nc(C(F)F)c(C(=O)NCc2ccccc2Cl)c1Cl` [Example 21], the logP worked out at 2.69.

In turn, `Cn1nc(C(F)F)c(C(=O)NCc2ccccc2Cl)c1F` [Example 25] had a logP of 2.50.

In the case of `Cn1nc(C(F)F)c(C(=O)NCc2ccc(Cl)cc2Cl)c1Cl` [Example 34], the logP is recorded as 4.19.

`CN(Cc1ccc(Cl)cc1Cl)C(=O)c1c(C(F)F)nn(C)c1Cl` [Example 42] came in with a logP of 3.37.

`Cn1nc(C(F)F)c(C(=O)NCc2cc(Cl)ccc2Cl)c1Cl` [Example 47] came in with a logP of 4.39.

`Cn1nc(C(F)F)c(C(=O)NC2(c3cc(Cl)ccc3Cl)CC2)c1Cl` [Example 48] had a logP of 4.19.

`CN(Cc1cc(Cl)ccc1Cl)C(=O)c1c(C(F)F)nn(C)c1Cl` [Example 57] showed a logP of 3.23.

Regarding `CN(Cc1cc(Cl)ccc1Cl)C(=O)c1c(C(F)F)nn(C)c1F` [Example 58], the lipophilicity (logP) worked out at 3.02.

With `Cn1nc(C(F)F)c(C(=O)NCc2c(Cl)cccc2Cl)c1Cl` [Example 59], the lipophilicity (logP) amounted to 3.89.

In turn, `Cn1nc(C(F)F)c(C(=O)NCc2c(Cl)cccc2Cl)c1F` [Example 60] registered a logP of 4.39.

Take `CC(c1c(Cl)cccc1Cl)N(C)C(=O)c1c(C(F)F)nn(C)c1Cl` (centres unmarked) [Example 63]: the logP is given as 3.25.

`Cn1nc(C(F)F)c(C(=O)NCc2ccccc2C2CC2)c1Cl` [Example 66] gave a logP of 2.98.

`CC(C)c1ccccc1CN(C(=O)c1c(C(F)F)nn(C)c1F)C(C)C` [Example 69] had a logP of 3.70.

`CON(Cc1ccccc1C(C)C)C(=O)c1c(C(F)F)nn(C)c1Cl` [Example 77] registered a logP of 3.51.

Regarding `Cn1nc(C(F)F)c(C(=O)N(Cc2cc(Cl)ccc2C(F)(F)F)C2CSC2)c1Cl` [Example 86], the lipophilicity (logP) is given as 4.08.

The molecule `Cn1nc(C(F)F)c(C(=O)NCc2c(F)cccc2C(F)(F)F)c1F` [Example 95] gave a logP of 2.69.

Take `Cn1nc(C(F)F)c(C(=O)NCc2c(F)cccc2C(F)(F)F)c1Cl` [Example 96]: the lipophilicity (logP) came out at 2.86.

`Cn1nc(C(F)F)c(C(=O)N(CC#N)Cc2ccccc2[Si](C)(C)C)c1F` [Example 97] came in with a logP of 3.52.

`CC(C)N(Cc1ccccc1[Si](C)(C)C)C(=O)c1c(C(F)F)nn(C)c1F` [Example 102] gave a logP of 4.37.
